Test results from patent publication US10954232B2, “Pyrazole derivative as ALK5 inhibitor and uses thereof” (HANMI PHARMACEUTICAL CO., LTD., priority 2016, dated 2021).

Target: T1, ALK5 kinase (Homo sapiens, UniProt P36897)
T1 construct: GST; purchased Thermo Fisher Scientific Solutions
T1 sequence (P36897 34-503): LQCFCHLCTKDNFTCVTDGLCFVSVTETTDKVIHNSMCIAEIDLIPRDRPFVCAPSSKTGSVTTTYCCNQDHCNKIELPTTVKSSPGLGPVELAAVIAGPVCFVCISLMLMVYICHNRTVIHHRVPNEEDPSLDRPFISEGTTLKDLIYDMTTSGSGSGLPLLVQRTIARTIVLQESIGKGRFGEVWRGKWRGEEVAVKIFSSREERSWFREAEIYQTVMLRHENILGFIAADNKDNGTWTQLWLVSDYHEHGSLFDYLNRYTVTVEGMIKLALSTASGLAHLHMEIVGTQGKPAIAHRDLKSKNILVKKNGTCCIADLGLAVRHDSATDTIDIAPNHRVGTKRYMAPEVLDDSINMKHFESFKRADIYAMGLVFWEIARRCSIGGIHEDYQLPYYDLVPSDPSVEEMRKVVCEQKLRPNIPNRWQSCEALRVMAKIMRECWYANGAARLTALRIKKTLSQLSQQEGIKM
Assay: Activity inhibition test on ALK5 enzyme (LanthaScreen Eu binding kinase assay)
Conditions: kinase tracer 178, 60 minutes at room temperature
Protocol: For each of the compounds obtained in Examples 1 to 227, inhibitory activity against ALK5 kinase was measured.
For this, a LanthaScreen Eu binding kinase assay method was used, and ALK5 kinase, a kinase buffer, a kinase tracer 178, and a LanthaScreen Eu-GST binding antibody were all purchased from Thermo Fisher Scientific Solutions. Each of the compounds was made into a 10 mM DMSO solution, and diluted by 1/10 to a concentration of 1 μM to 0.0001 μM with an aqueous solution containing 4% DMSO. The test was performed in 384 well plates (well polystyrene low volume round-bottomed plates). First, 5 μL of the diluted compound solution was added, then 5 μL of the kinase/antibody mixture solution was introduced thereto, and 5 μL of the tracer was introduced thereto. Herein, these were added to each well so that the final kinase concentration became 5 nM, the final Eu-GST binding antibody concentration 2 nM, and the kinase tracer 178 concentration 10 nM, and the result was reacted in a stirrer for 60 minutes at room temperature. Then a fluorescence value was measured using a fluorescence meter (molecular device) ([…], 665 nm emission filter). Herein, as for the degree of compound activity to inhibit the kinase reaction, a phosphorylate rate was calculated from 0% to 100% with respect to a control group according to the protocol included in the kit, and a 50% inhibitory concentration (IC50) value was calculated by obtaining the x-axis concentration in the region where 50% activity was inhibited.

`Cc1cccc(-n2nc(C(=O)Nc3ccc(F)cc3)cc2-c2ccc3ncsc3c2)n1` [Example 29, 5-(benzo[d]thiazol-6-yl)-N-(4-fluorophenyl)-1-(6-methylpyridin-2-yl)-1H-pyrazole-3-carboxyamide] gave an IC50 of 3.9 nM.

Molecule `Cc1cccc(-n2nc(C(=O)Nc3ccc(F)c(F)c3)cc2-c2ccc3ncsc3c2)n1` [Example 30, 5-(benzo[d]thiazol-6-yl)-N-(3,4-difluorophenyl)-1-(6-methylpyridin-2-yl)-1H-pyrazole-3-carboxyamide] has an IC50 of 5.8 nM.

In the case of `Cc1cccc(-n2nc(C(=O)Nc3ccccc3Cl)cc2-c2ccc3ncsc3c2)n1` [Example 31, 5-(benzo[d]thiazol-6-yl)-N-(2-chlorophenyl)-1-(6-methylpyridin-2-yl)-1H-pyrazole-3-carboxyamide], the IC50 is reported as over 100 nM.

Molecule `Cc1cccc(-n2nc(C(=O)Nc3cccc(Cl)c3)cc2-c2ccc3ncsc3c2)n1` [Example 32, 5-(benzo[d]thiazol-6-yl)-N-(3-chlorophenyl)-1-(6-methylpyridin-2-yl)-1H-pyrazole-3-carboxyamide] has an IC50 of 10 to 100 nM.

For `Cc1cccc(-n2nc(C(=O)Nc3ccc(Cl)cc3)cc2-c2ccc3ncsc3c2)n1` [Example 33, 5-(benzo[d]thiazol-6-yl)-N-(4-chlorophenyl)-1-(6-methylpyridin-2-yl)-1H-pyrazole-3-carboxyamide], the IC50 was 10 to 100 nM.

For `Cc1cccc(-n2nc(C(=O)Nc3ccc(Br)cc3)cc2-c2ccc3ncsc3c2)n1` [Example 34, 5-(benzo[d]thiazol-6-yl)-N-(4-bromophenyl)-1-(6-methylpyridin-2-yl)-1H-pyrazole-3-carboxyamide], the IC50 was 10 to 100 nM.

`CSc1cccc(NC(=O)c2cc(-c3ccc4ncsc4c3)n(-c3cccc(C)n3)n2)c1` [Example 35, 5-(benzo[d]thiazol-6-yl)-1-(6-methylpyridin-2-yl)-N-(3-(methylthio)phenyl)-1H-pyrazole-3-carboxyamide] gave an IC50 of 10 to 100 nM.

Molecule `CSc1ccc(NC(=O)c2cc(-c3ccc4ncsc4c3)n(-c3cccc(C)n3)n2)cc1` [Example 36, 5-(benzo[d]thiazol-6-yl)-1-(6-methylpyridin-2-yl)-N-(4-(methylthio)phenyl)-1H-pyrazole-3-carboxyamide] has an IC50 of under 10 nM.

Work on `Cc1cccc(-n2nc(C(=O)Nc3ccc(SC4CC4)cc3)cc2-c2ccc3ncsc3c2)n1` [Example 37, 5-(benzo[d]thiazol-6-yl)-N-(4-(cyclopropylthio)phenyl)-1-(6-methylpyridin-2-yl)-1H-pyrazole-3-carboxyamide] yielded an IC50 of 40 nM.

`Cc1cccc(-n2nc(C(=O)Nc3cccc([S+](C)[O-])c3)cc2-c2ccc3ncsc3c2)n1` (centres unmarked) [Example 38, 5-(benzo[d]thiazol-6-yl)-1-(6-methylpyridin-2-yl)-N-(3-(methylsulfinyl)phenyl)-1H-pyrazole-3-carboxyamide] was tested, and the IC50 was 1.8 nM.

With `Cc1cccc(-n2nc(C(=O)Nc3ccc([S+](C)[O-])cc3)cc2-c2ccc3ncsc3c2)n1` (centres unmarked) [Example 39, 5-(benzo[d]thiazol-6-yl)-1-(6-methylpyridin-2-yl)-N-(4-(methylsulfinyl)phenyl)-1H-pyrazole-3-carboxyamide] the IC50 was 2.4 nM.

For `Cc1cccc(-n2nc(C(=O)Nc3cccc(S(C)(=O)=O)c3)cc2-c2ccc3ncsc3c2)n1` [Example 40, 5-(benzo[d]thiazol-6-yl)-1-(6-methylpyridin-2-yl)-N-(3-(methylsulfonyl)phenyl)-1H-pyrazole-3-carboxyamide], the IC50 was 3.3 nM.

In the case of `Cc1cccc(-n2nc(C(=O)Nc3ccc(S(C)(=O)=O)cc3)cc2-c2ccc3ncsc3c2)n1` [Example 41, 5-(benzo[d]thiazol-6-yl)-1-(6-methylpyridin-2-yl)-N-(4-(methylsulfonyl)phenyl)-1H-pyrazole-3-carboxyamide], the IC50 is reported as 5.2 nM.

Molecule `CCCS(=O)(=O)c1ccc(NC(=O)c2cc(-c3ccc4ncsc4c3)n(-c3cccc(C)n3)n2)cc1` [Example 42, 5-(benzo[d]thiazol-6-yl)-1-(6-methylpyridin-2-yl)-N-(4-(propylsulfonyl)phenyl)-1H-pyrazole-3-carboxyamide] has an IC50 of 2.2 nM.

With `Cc1cccc(-n2nc(C(=O)Nc3ccc(S(=O)(=O)C4CC4)cc3)cc2-c2ccc3ncsc3c2)n1` [Example 43, 5-(benzo[d]thiazol-6-yl)-N-(4-(cyclopropylsulfonyl)phenyl)-1-(6-methylpyridin-2-yl)-1H-pyrazole-3-carboxyamide] the IC50 was 4.4 nM.

Work on `Cc1cccc(-n2nc(C(=O)Nc3ccc(S(C)(=O)=O)cc3F)cc2-c2ccc3ncsc3c2)n1` [Example 44, 5-(benzo[d]thiazol-6-yl)-N-(2-fluoro-4-(methylsulfonyl)phenyl)-1-(6-methylpyridin-2-yl)-1H-pyrazole-3-carboxyamide] yielded an IC50 of 13 nM.

`Cc1cccc(-n2nc(C(=O)Nc3cccc(S(N)(=O)=O)c3)cc2-c2ccc3ncsc3c2)n1` [Example 45, 5-(benzo[d]thiazol-6-yl)-1-(6-methylpyridin-2-yl)-N-(3-sulfamoylphenyl)-1H-pyrazole-3-carboxyamide] gave an IC50 of 2.4 nM.

`Cc1cccc(-n2nc(C(=O)Nc3ccc(S(N)(=O)=O)cc3)cc2-c2ccc3ncsc3c2)n1` [Example 46] showed an IC50 of 1.3 nM.

`CNS(=O)(=O)c1cccc(NC(=O)c2cc(-c3ccc4ncsc4c3)n(-c3cccc(C)n3)n2)c1` [Example 47, 5-(benzo[d]thiazol-6-yl)-1-(6-methylpyridin-2-yl)-N-(3-(N-methylsulfamoyl)phenyl)-1H-pyrazole-3-carboxyamide] showed an IC50 of 1.2 nM.

Work on `CNS(=O)(=O)c1ccc(NC(=O)c2cc(-c3ccc4ncsc4c3)n(-c3cccc(C)n3)n2)cc1` [Example 48, 5-(benzo[d]thiazol-6-yl)-1-(6-methylpyridin-2-yl)-N-(4-(N-methylsulfamoyl)phenyl)-1H-pyrazole-3-carboxyamide] yielded an IC50 of 4.1 nM.

`Cc1cccc(-n2nc(C(=O)Nc3cccc(S(=O)(=O)NC4CC4)c3)cc2-c2ccc3ncsc3c2)n1` [Example 49, 5-(benzo[d]thiazol-6-yl)-N-(3-(N-cyclopropylsulfamoyl)phenyl)-1-(6-methylpyridin-2-yl)-1H-pyrazole-3-carboxyamide] gave an IC50 of 5.6 nM.

`Cc1cccc(-n2nc(C(=O)Nc3ccc(S(=O)(=O)NC4CC4)cc3)cc2-c2ccc3ncsc3c2)n1` [Example 50, 5-(benzo[d]thiazol-6-yl)-N-(4-(N-cyclopropylsulfamoyl)phenyl)-1-(6-methylpyridin-2-yl)-1H-pyrazole-3-carboxyamide] gave an IC50 of 6.6 nM.

`Cc1cccc(-n2nc(C(=O)Nc3cccc(S(=O)(=O)N(C)C)c3)cc2-c2ccc3ncsc3c2)n1` [Example 51, 5-(benzo[d]thiazol-6-yl)-N-(3-(N,N-dimethylsulfamoyl)phenyl)-1-(6-methylpyridin-2-yl)-1H-pyrazole-3-carboxyamide] showed an IC50 of 6.5 nM.

`Cc1cccc(-n2nc(C(=O)Nc3ccc(S(=O)(=O)N(C)C)cc3)cc2-c2ccc3ncsc3c2)n1` [Example 52, 5-(benzo[d]thiazol-6-yl)-N-(4-(N,N-dimethylsulfamoyl)phenyl)-1-(6-methylpyridin-2-yl)-1H-pyrazole-3-carboxyamide] showed an IC50 of 2.5 nM.

`Cc1cccc(-n2nc(C(=O)Nc3cccc(NS(C)(=O)=O)c3)cc2-c2ccc3ncsc3c2)n1` [Example 53, 5-(benzo[d]thiazol-6-yl)-1-(6-methylpyridin-2-yl)-N-(3-(methylsulfonamido)phenyl)-1H-pyrazole-3-carboxyamide] showed an IC50 of 2.4 nM.

Molecule `Cc1cccc(-n2nc(C(=O)Nc3cccc(NS(=O)(=O)C4CC4)c3)cc2-c2ccc3ncsc3c2)n1` [Example 54, 5-(benzo[d]thiazol-6-yl)-N-(3-(cyclopropanesulfonamido)phenyl)-1-(6-methylpyridin-2-yl)-1H-pyrazole-3-carboxyamide] has an IC50 of 2 nM.

In the case of `Cc1cccc(-n2nc(C(=O)Nc3ccc(NS(=O)(=O)C4CC4)cc3)cc2-c2ccc3ncsc3c2)n1` [Example 55, 5-(benzo[d]thiazol-6-yl)-N-(4-(cyclopropanesulfonamido)phenyl)-1-(6-methylpyridin-2-yl)-1H-pyrazole-3-carboxyamide], the IC50 is reported as 4.2 nM.

`Cc1cccc(-n2nc(C(=O)Nc3ccc(S(=O)(=O)O)cc3)cc2-c2ccc3ncsc3c2)n1` [Example 56, 4-(5-(benzo[d]thiazol-6-yl)-1-(6-methylpyridin-2-yl)-1H-pyrazole-3-carboxyamido)benzenesulfonic acid] was tested, and the IC50 was 2.4 nM.

Molecule `Cc1cccc(-n2nc(C(=O)Nc3ccc(S(=O)(=O)C(F)(F)F)cc3)cc2-c2ccc3ncsc3c2)n1` [Example 57, 5-(benzo[d]thiazol-6-yl)-1-(6-methylpyridin-2-yl)-N-(4-((trifluoromethyl)sulfonyl)phenyl)-1H-pyrazole-3-carboxyamide] has an IC50 of 45 nM.
